The values that follow come from publication PMC4159287, “Characterization of a Soluble Phosphatidic Acid Phosphatase in Bitter Melon (Momordica charantia)” (PLoS ONE, 2014).

The assay deals with T1, soluble phosphatidic acid phosphatase (PAP), Mg2+-independent, partially purified from bitter melon cotyledons.
T1 construct: many copurified proteins, no PAP peptide found by LC/MS/MS
As to the kind of experiment: Pi release, ammonium molybdate-acetone-acid, A355. The following applies: pH 6.5, 53°C, 0.3 mM MgCl2, 50 mM imidazole, DPA 0-500 µM, sigmoidal curve. The format is biochemical, Momordica charantia.

As a reminder, the Km is the substrate concentration at which the rate is half of its maximum. Regarding `CCCCCCCC/C=C\CCCCCCCC(=O)OC[C@H](COP(=O)(O)O)OC(=O)CCCCCCC/C=C\CCCCCCCC` [DPA, 1,2-dioleoyl-sn-glycero-3-phosphate], the Michaelis-Menten constant (Km) is 595 µM.
